Test results: patent publication US20100099561A1, “HETEROBICYCLIC ALKYLTHIO-BRIDGED ISOXAZOLINES” (E.I. DU PONT DE NEMOURS AND COMPANY, priority 2008, published 2010)

What was measured:
Assay type in all cases: in vivo
[1] = system: bermudagrass (Cynodon dactylon); experiment: Test B preemergence, bermudagrass; settings: scale 0 to 100
From the text: (§1) Seeds of plant species selected from blackgrass (Alopecurus myosuroides), downy bromegrass (Bromus tectorum), green foxtail (Setaria viridis), Italian ryegrass (Lolium multiflorum), wheat (Triticum aestivum), wild oat (Avena fatua), catchweed bedstraw (Galium aparine), bermudagrass (Cynodon dactylon), Surinam grass (Brachiaria decumbens), cocklebur (Xanthium strumarium), corn (Zea mays), large crabgrass (Digitaria sanguinalis), woolly cupgrass (Eriochloa villosa), giant foxtail (Setaria faberii), goosegrass (Eleusine indica), johnsongrass (Sorghum halepense), kochia (Kochia scoparia), lambsquarters (Chenopodium album), morningglory (Ipomoea coccinea), nightshade (eastern black nightshade, Solanum ptycanthum), yellow nutsedge (Cyperus esculentus), pigweed (Amaranthus retroflexus), ragweed (common ragweed, Ambrosia elatior), soybean (Glycine max), sunflower (common oilseed sunflower, Helianthus annuus), Russian thistle (Salsola kali), and velvetleaf (Abutilon theophrasti) were planted into a blend of loam soil and sand and treated preemergence with test compounds formulated in a non-phytotoxic solvent mixture which included a surfactant. Treated plants and controls were maintained in a greenhouse for 13 to 15 days, after which time all species were compared to controls and visually evaluated. Plant response ratings, summarized in Table B, are based on a scale of 0 to 100 where 0 is no effect and 100 is complete control. A dash (-) response means no test result.

[2] = system: catchweed bedstraw (Galium aparine); experiment: Test B preemergence, catchweed bedstraw; settings: scale 0 to 100
From the text: as §1

[3] = system: wheat (Triticum aestivum); experiment: Test A preemergence, wheat; settings: 0 to 100 scale (0 no effect, 100 complete control)
In short: (§2)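 Sow seeds in loam–sand blend; spray soil directly (pre) and treat emerged one- to two-leaf plants 2–10 cm tall (post) with compound in surfactant-containing non-phytotoxic solvent. Keep in greenhouse about ten days. Score injury visually against controls from 0 to 100.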

corn (Zea mays) [4] = experiment: Test B preemergence, corn; settings: scale 0 to 100
From the text: as §1

[5] = system: giant foxtail (Setaria faberi); experiment: Test A postemergence, giant foxtail; settings: 0 to 100 scale (0 no effect, 100 complete control)
In short: as §2

corn (Zea mays) [6] = experiment: Test A preemergence, corn; settings: 0 to 100 scale (0 no effect, 100 complete control)
In short: as §2

[7] = system: large crabgrass (Digitaria sanguinalis); experiment: Test A preemergence, large crabgrass; settings: 0 to 100 scale (0 no effect, 100 complete control)
In short: as §2

[8] = system: velvetleaf (Abutilon theophrasti); experiment: Test A preemergence, velvetleaf; settings: 0 to 100 scale (0 no effect, 100 complete control)
In short: as §2

[9] = system: Surinam grass (Brachiaria decumbens); experiment: Test B preemergence, Surinam grass; settings: Preemergence, scale 0 to 100
From the text: as §1

[10] = system: barnyardgrass (Echinochloa crus-galli); experiment: Test B flooded paddy test, barnyardgrass; settings: Flood
In short: (§3)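 Compounds were added directly to paddy water over 2-leaf-stage plants in pots flooded 3 cm above soil, water depth maintained. Visual injury scored against controls after 13 to 15 days in greenhouse, 0 (none) to 100 (complete control); dash indicates no result.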

[11] = system: large crabgrass (Digitaria sanguinalis); experiment: Test B preemergence, large crabgrass; settings: scale 0 to 100
From the text: as §1

[12] = system: nightshade (eastern black nightshade, Solanum ptycanthum); experiment: Test B preemergence, nightshade; settings: scale 0 to 100
From the text: as §1

[13] = system: barnyardgrass (Echinochloa crus-galli); experiment: Test A preemergence, barnyardgrass; settings: 0 to 100 scale (0 no effect, 100 complete control)
In short: as §2

[14] = system: morningglory (Ipomoea spp.); experiment: Test A preemergence, morningglory; settings: 0 to 100 scale (0 no effect, 100 complete control)
In short: as §2

[15] = system: velvetleaf (Abutilon theophrasti); experiment: Test B preemergence, velvetleaf; settings: Preemergence, scale 0 to 100
From the text: as §1

[16] = system: umbrella sedge (Cyperus difformis); experiment: Test B flooded paddy test, umbrella sedge; settings: Flood, scale 0 to 100
In short: as §3

soybean (Glycine max) = experiment: Test B preemergence, soybean; settings: Preemergence, scale 0 to 100
From the text: as §1

[17] = system: pigweed (Amaranthus retroflexus); experiment: Test A preemergence, pigweed; settings: 0 to 100 scale (0 no effect, 100 complete control)
In short: as §2

[18] = system: giant foxtail (Setaria faberi); experiment: Test A preemergence, giant foxtail; settings: 0 to 100 scale (0 no effect, 100 complete control)
In short: as §2

[19] = system: woolly cupgrass (Eriochloa villosa); experiment: Test B preemergence, woolly cupgrass; settings: scale 0 to 100
From the text: as §1

[20] = 250 g ai/ha, scale 0 to 100 (0 no effect, 100 complete control)

CC1(C)CC(S(=O)(=O)Cc2c(C(F)(F)C(F)(F)F)nc3n(c2=O)CCCC3)=NO1 [Compound 21]
Plant response rating, Bermudagrass ([1]; 16 g ai/ha): 90 | Plant response rating, Bermudagrass ([1]; 31 g ai/ha): 100 | Plant response rating, Bermudagrass ([1]; 62 g ai/ha): 100 | Plant response rating, Bermudagrass ([1]; 125 g ai/ha): 100 | Plant response rating, Galium ([2]; 16 g ai/ha): 0 | Plant response rating, Galium ([2]; 31 g ai/ha): 0 | Plant response rating, Galium ([2]; 62 g ai/ha): 30 | Plant response rating, Galium ([2]; 125 g ai/ha): 50 | Plant response rating, Wheat ([3]; 125 g ai/ha): 0 | Plant response rating, Wheat ([3]; 500 g ai/ha): 40 | Plant response rating, Corn (corn (Zea mays) [4]; 16 g ai/ha): 0 | Plant response rating, Corn (corn (Zea mays) [4]; 31 g ai/ha): 0 | Plant response rating, Corn (corn (Zea mays) [4]; 62 g ai/ha): 0 | Plant response rating, Corn (corn (Zea mays) [4]; 125 g ai/ha): 10 | Plant response rating, Foxtail, Giant ([5]; 125 g ai/ha): 60 | Plant response rating, Foxtail, Giant ([5]; 500 g ai/ha): 70 | Plant response rating, Corn (corn (Zea mays) [6]; 125 g ai/ha): 0 | Plant response rating, Corn (corn (Zea mays) [6]; 500 g ai/ha): 0 | Plant response rating, Crabgrass, Large ([7]; 125 g ai/ha): 90 | Plant response rating, Crabgrass, Large ([7]; 500 g ai/ha): 100 | Plant response rating, Velvetleaf ([8]; 125 g ai/ha): 0 | Plant response rating, Velvetleaf ([8]; 500 g ai/ha): 60 | Plant response rating, Surinam Grass ([9]; 16 g ai/ha): 50 | Plant response rating, Surinam Grass ([9]; 31 g ai/ha): 50 | Plant response rating, Surinam Grass ([9]; 62 g ai/ha): 50 | Plant response rating, Surinam Grass ([9]; 125 g ai/ha): 100 | Plant response rating, Barnyardgrass ([10]; 62 g ai/ha, scale 0 to 100): 0 | Plant response rating, Barnyardgrass [10, 20]: 0 | Plant response rating, Crabgrass, Large ([11]; 16 g ai/ha): 20 | Plant response rating, Crabgrass, Large ([11]; 31 g ai/ha): 95 | Plant response rating, Crabgrass, Large ([11]; 62 g ai/ha): 98 | Plant response rating, Crabgrass, Large ([11]; 125 g ai/ha): 100 | Plant response rating, Nightshade ([12]; 16 g ai/ha): 50 | Plant response rating, Nightshade ([12]; 31 g ai/ha): 50 | Plant response rating, Nightshade ([12]; 62 g ai/ha): 75 | Plant response rating, Nightshade ([12]; 125 g ai/ha): 90 | Plant response rating, Barnyardgrass ([13]; 125 g ai/ha): 90 | Plant response rating, Barnyardgrass ([13]; 500 g ai/ha): 100 | Plant response rating, Morningglory ([14]; 125 g ai/ha): 0 | Plant response rating, Morningglory ([14]; 500 g ai/ha): 50 | Plant response rating, Velvetleaf ([15]; 16 g ai/ha): 0 | Plant response rating, Velvetleaf ([15]; 31 g ai/ha): 0 | Plant response rating, Velvetleaf ([15]; 62 g ai/ha): 0 | Plant response rating, Velvetleaf ([15]; 125 g ai/ha): 75 | Plant response rating, Sedge, Umbrella ([16]; 62 g ai/ha): 0 | Plant response rating, Sedge, Umbrella ([16]; 250 g ai/ha): 0 | Plant response rating, Soybean (soybean (Glycine max); 16 g ai/ha): 0 | Plant response rating, Soybean (soybean (Glycine max); 31 g ai/ha): 0 | Plant response rating, Soybean (soybean (Glycine max); 62 g ai/ha): 0 | Plant response rating, Soybean (soybean (Glycine max); 125 g ai/ha): 0 | Plant response rating, Pigweed ([17]; 125 g ai/ha): 0 | Plant response rating, Pigweed ([17]; 500 g ai/ha): 100 | Plant response rating, Foxtail, Giant ([18]; 125 g ai/ha): 90 | Plant response rating, Foxtail, Giant ([18]; 500 g ai/ha): 100 | Plant response rating, Cupgrass, Woolly ([19]; 16 g ai/ha): 100 | Plant response rating, Cupgrass, Woolly ([19]; 31 g ai/ha): 100 | Plant response rating, Cupgrass, Woolly ([19]; 62 g ai/ha): 100 | Plant response rating, Cupgrass, Woolly ([19]; 125 g ai/ha): 100

CC1(C)CC(S(=O)(=O)Cc2c(C(F)(F)Cl)nc3n(c2=O)CCC3)=NO1 [Compound 18]
Plant response rating, Bermudagrass ([1]; 16 g ai/ha): 0 | Plant response rating, Bermudagrass ([1]; 31 g ai/ha): 98 | Plant response rating, Bermudagrass ([1]; 62 g ai/ha): 100 | Plant response rating, Bermudagrass ([1]; 125 g ai/ha): 100 | Plant response rating, Galium ([2]; 62 g ai/ha): 0 | Plant response rating, Galium ([2]; 125 g ai/ha): 0 | Plant response rating, Wheat ([3]; 125 g ai/ha): 0 | Plant response rating, Wheat ([3]; 500 g ai/ha): 30 | Plant response rating, Corn (corn (Zea mays) [4]; 16 g ai/ha): 0 | Plant response rating, Corn (corn (Zea mays) [4]; 31 g ai/ha): 0 | Plant response rating, Corn (corn (Zea mays) [4]; 62 g ai/ha): 0 | Plant response rating, Corn (corn (Zea mays) [4]; 125 g ai/ha): 0 | Plant response rating, Foxtail, Giant ([5]; 125 g ai/ha): 70 | Plant response rating, Foxtail, Giant ([5]; 500 g ai/ha): 80 | Plant response rating, Corn (corn (Zea mays) [6]; 125 g ai/ha): 0 | Plant response rating, Corn (corn (Zea mays) [6]; 500 g ai/ha): 0 | Plant response rating, Crabgrass, Large ([7]; 125 g ai/ha): 90 | Plant response rating, Crabgrass, Large ([7]; 500 g ai/ha): 100 | Plant response rating, Velvetleaf ([8]; 125 g ai/ha): 0 | Plant response rating, Velvetleaf ([8]; 500 g ai/ha): 60 | Plant response rating, Surinam Grass ([9]; 16 g ai/ha): 0 | Plant response rating, Surinam Grass ([9]; 31 g ai/ha): 40 | Plant response rating, Surinam Grass ([9]; 62 g ai/ha): 75 | Plant response rating, Surinam Grass ([9]; 125 g ai/ha): 85 | Plant response rating, Barnyardgrass ([10]; 31 g ai/ha, scale 0 to 100): 0 | Plant response rating, Barnyardgrass ([10]; 62 g ai/ha, scale 0 to 100): 0 | Plant response rating, Barnyardgrass ([10]; 125 g ai/ha, scale 0 to 100): 0 | Plant response rating, Barnyardgrass [10, 20]: 0 | Plant response rating, Crabgrass, Large ([11]; 16 g ai/ha): 0 | Plant response rating, Crabgrass, Large ([11]; 31 g ai/ha): 70 | Plant response rating, Crabgrass, Large ([11]; 62 g ai/ha): 90 | Plant response rating, Crabgrass, Large ([11]; 125 g ai/ha): 100 | Plant response rating, Nightshade ([12]; 16 g ai/ha): 0 | Plant response rating, Nightshade ([12]; 31 g ai/ha): 0 | Plant response rating, Nightshade ([12]; 62 g ai/ha): 0 | Plant response rating, Nightshade ([12]; 125 g ai/ha): 95 | Plant response rating, Barnyardgrass ([13]; 125 g ai/ha): 70 | Plant response rating, Barnyardgrass ([13]; 500 g ai/ha): 100 | Plant response rating, Morningglory ([14]; 125 g ai/ha): 0 | Plant response rating, Morningglory ([14]; 500 g ai/ha): 50 | Plant response rating, Velvetleaf ([15]; 16 g ai/ha): 0 | Plant response rating, Velvetleaf ([15]; 31 g ai/ha): 0 | Plant response rating, Velvetleaf ([15]; 62 g ai/ha): 0 | Plant response rating, Velvetleaf ([15]; 125 g ai/ha): 0 | Plant response rating, Sedge, Umbrella ([16]; 31 g ai/ha): 0 | Plant response rating, Sedge, Umbrella ([16]; 62 g ai/ha): 0 | Plant response rating, Sedge, Umbrella ([16]; 125 g ai/ha): 0 | Plant response rating, Sedge, Umbrella ([16]; 250 g ai/ha): 0 | Plant response rating, Soybean (soybean (Glycine max); 16 g ai/ha): 0 | Plant response rating, Soybean (soybean (Glycine max); 31 g ai/ha): 0 | Plant response rating, Soybean (soybean (Glycine max); 62 g ai/ha): 0 | Plant response rating, Soybean (soybean (Glycine max); 125 g ai/ha): 0 | Plant response rating, Pigweed ([17]; 125 g ai/ha): 60 | Plant response rating, Pigweed ([17]; 500 g ai/ha): 100 | Plant response rating, Foxtail, Giant ([18]; 125 g ai/ha): 90 | Plant response rating, Foxtail, Giant ([18]; 500 g ai/ha): 100 | Plant response rating, Cupgrass, Woolly ([19]; 16 g ai/ha): 0 | Plant response rating, Cupgrass, Woolly ([19]; 31 g ai/ha): 20 | Plant response rating, Cupgrass, Woolly ([19]; 62 g ai/ha): 65 | Plant response rating, Cupgrass, Woolly ([19]; 125 g ai/ha): 95
